From patent publication US6372756B1, “Epimorphian compound and its use” (AvMax, Inc., priority 1998, dated 2002)
Where two headings read alike, the source gives them in different places.

How the values were obtained:
[1] = test system: interleukin-2 (IL-2) synthesis in OKT3-stimulated PBMCs; assay: OKT3-stimulated human peripheral blood mononuclear cell assay, IL-2 secretion by ELISA; assay type: cell-based; settings: for IC50: OKT3 (1 μg/l) for 14 hours, curve fit, three independent experiments, read-out: IC50 of inhibition of IL-2 synthesis
Procedure: In an OKT3-stimulated human peripheral blood mononuclear cell assay, the relative biological activities of sinomenine and N-demethyl-sinomenine were tested.
The OKT3-stimulated human peripheral blood mononuclear cell assay was performed as described in Liu, L. et al., Inhibition of Lymphocyte Proliferation by the Anti-Arthritic Drug Sinomenine, Int. J. Immunopharmac., 16(8):685-691, (1994). Human Peripheral Blood Mononuclear Cells (PBMCS) were isolated from heparinized blood drawn from healthy adults. After separation from other blood components by density gradient centrifugation on Ficoll-hypaque (Biochrom, Berlin, Germany), the PBMCs were suspended in RPMI 1640 medium/10%FCS (RPMI 1640 medium with L-glutamine and nonessential amino acids: Gibco (Eggenstein, Germany); fetal calf serum (FCS): PAA Biologics (Marburg, Germany)).
The PBMCs (10^5 cells in a total volume of 150 μl per well) were activated by incubation with the monoclonal anti-T-cell receptor/CD3 complex antibody OKT3 (1 μg/l) for 14 hours. During this incubation, either sinomenine or N-demethyl-sinomenine was present in each of the main experimental wells at concentrations ranging from 10^−8 to 10^−3 M, as indicated on the x-axes of the graphs of FIGS. 10A and 10B. Control wells containing neither sinomenine nor its major metabolite were also prepared. The concentration of secreted IL-2 in the supernatants of activated PBMCs was determined using a commercial ELISA kit (Immunotech, Hamburg, Germany) following the manufacturer's instructions. In each of FIGS. 10A-B, the mean and standard error of three independent experiments are shown.
FIG. 10A presents the results for inhibition of IL-2 secretion by sinomenine. The concentration of IL-2 production, as a percentage of the control (100% equalled 1135 pg/ml, in this instance), was plotted against the molar concentration of sinomenine for each data point. The curves depicted were generated by a curve fit computer program (Microcal Origin Version 3.5). […]

human liver microsomes = assay: Incubation of sinomenine with human liver microsomes and NADPH generating system, HPLC/UV; assay type: in vitro ADME
Procedure: The livers of male Sprague Dawley rats, treated with dexamethasone for two days, and human liver specimens provided the sources for the starting material. Liver microsomes were prepared using standard centrifugation techniques as described by Guengerich (Guengerich, F. P., et al., Microsomal Enzymes Involved in Toxicology-Analysis and Separation, In: Principles and Methods in Toxicology (Ed. Hayes A W), pp. 609-637, Raven Press, New York, (1982)) with some modifications. Specifically, phosphate buffer was used instead of TRIS buffer and microsomes were stored at −80° C. The protein concentration was determined using a bicinchoninic acid assay (Redingbaugh, M. G., et al., Adaptation of the Bicinchoninic Acit Protein Assay for Use With Microtiter Plates and Sucrose Gradient Fractions, Anal. Biochem., 153:267-271, (1986)) and adjusted with 0.1 M potassium phosphate buffer, pH 7.4, to 3 g/l. […]
The presence of sinomenine and N-demethyl-sinomenine over time in the presence of microsomes and an NADPH generating solution were determined by HPLC and ultraviolet (UV) analysis. […]
For the HPLC analysis, a 250×4 mm analytical column was prepared with endcapped C18 material of 5 μm particle size. […] Sinomenine and its metabolites were detected with a UV wavelength of 234 nm. […]

[2] = Water solubility inferred from retention on lipophilic reversed-phase HPLC column; assay type: physicochemical; settings: evidenced by shorter retention time on lipophilic reversed-phase HPLC column
Text: This characteristic of the novel compound results in a different oral bioavailability, pharmacokinetic profile, and organ distribution pattern than the known compound and also leads to ease in creating formulations for therapeutic use.
An HPLC system was also used for analysis of the sinomenine metabolism end products. For analytical HPLC, sinomenine and its metabolites were separated on a 250×4 mm LiChroCart column filled with endcapped Supersphere RP-18 material of 5 μm particle size and 100 Å pore width (Merck, Darmstadt, Germany).
The metabolite was prepared as described in Example 1. The samples were centrifuged (2000 g, 2 minutes) and 100 μl of the supernatant was injected into the analytical HPLC system. A control sample was prepared by the method described in Example 1 except that sinomenine and liver microsomes were incubated with an equal amount of phosphate buffer instead of with the NADPH generating solution. An HPLC run of the control sample was also made. The flow rate for the HPLC was set at 1 ml/min and the UV detection wavelength was 234 nm. The analytical column was kept at room temperature.
Sinomenine and its metabolites were isocratically eluted from the column with a mobile phase of 9.0/9.0/12.0/70.0 v/v/v/v methanol/acetonitrile/0.2 M sodium acetate/water, pH 5.5. The various fractions were quantified based on an external sinomenine calibration curve. […]

[3] = In vivo sinomenine metabolism, rat plasma; set-up: species or system female Lewis rats; settings: sinomenine 150 mg/kg intraperitoneally, blood after 30 minutes
Procedure: (§1) More particularly, to study its metabolism in vivo, sinomenine was injected intraperitoneally into female Lewis rats at a concentration of 150 mg/kg body weight. Blood was taken after 30 minutes from the rat tail vein and plasma samples were prepared from the blood samples via standard techniques. In a parallel study, MRL-1 pr mice were injected intraperitoneally with either sinomenine at a concentration of 100 mg/kg body weight or physiological saline. Mouse urine was collected over a period of 24 hours.
(§2) The collected samples of rat blood and mouse urine from each of these studies were split so that testing could be performed immediately and after storage at −20° C. for one week. HPLC and GC/MS analysis was performed and there were no statistically significant differences in the results obtained from the immediately tested and the frozen samples.
(§3) A metabolite peak with the same relative retention time as the major metabolite isolated after incubation of sinomenine and NADPH generating solution with rat microsomes or human liver microsomes was obtained upon analysis of the rat blood and mouse urine samples. […] FIGS. 9A-B show HPLC chromatograms run on urine samples obtained from mice treated with saline (FIG. 9A) or with sinomenine (FIG. 9B). […]

[4] = In vivo sinomenine metabolism, mouse urine; set-up: species or system MRL-1 pr mice; settings: sinomenine 100 mg/kg intraperitoneally, urine collected over 24 hours
Procedure: as §1, §2, §3

Lymphocyte proliferation = settings: in vitro; cited from earlier work
[5] = in vivo; cited from earlier work

Row | SMILES | IC50 [1] [µM] | biological activity (IL-2 inhibition IC50) relative to sinomenine ([1]; same assay, relative to sinomenine) | share of all sinomenine metabolic products (human liver microsomes; believed to represent) | water solubility relative to sinomenine [2] | detection as metabolite in plasma [3] | detection as metabolite in urine [4] | IC50 ([1]; Homo sapiens, PBMC) [µM] | amounts of sinomenine and its major metabolite (human liver microsomes; 120 minutes after the start of the reaction, human liver microsomes) | effect on lymphocyte proliferation (Lymphocyte proliferation) | side effects [5]
1 | COC1=C[C@H]2[C@H]3Cc4ccc(OC)c(O)c4[C@@]2(CCN3)CC1=O [N-demethyl-sinomenine] | 20 | approximately five | approximately 90% | greater water solubility | detected as a metabolite | detected as a metabolite |  |  |  | 
2 | COC1=C[C@@H]2[C@@H]3Cc4ccc(OC)c(O)c4[C@]2(CCN3C)CC1=O [sinomenine, reference compound] |  |  |  |  |  |  | 100 | approximately equal amounts | inhibited by sinomenine in a reversible manner without exhibiting direct cytotoxic effects | minor side effects such as mild pain, cough, and diarrhea
